According to US20260242768A1, “ACETYL-COENZYME A CARBOXYLASE MUTANTS” (CIBUS US LLC, priority 2023, published 2026):

What was measured:
[1] = tested on: rice (Oryza sativa) plastidal ACCase; assay: Clethodim tolerance of rice ACCase mutations, yeast complementation assay (Examples 1-3); format: cell-based; conditions: for clethodim tolerance: ACCase mutation tested with the herbicide clethodim; for clethodim tolerance of combined mutations compared with single mutation(s) or parent mutant: double/triple mutants vs single mutations; for effect on clethodim tolerance of the single D2078G mutation: mutation added to D2078G
Excerpt: Joachimiak M. et al Proc Natl Acad Sci U.S.A. 1997 Sep. 2; 94 (18): 9990-5 and WO/2013/074524 and WO/2013/074524 each describe methods to complement a yeast (Saccharomyces cerevisiae) strain lacking the native acc1 gene with either a wt or mutated form of a chimeric plastidal ACCase gene from a plant such as rice (Oryza sativa). Methods to introduce one or more mutations listed herein into the chimeric ACCase gene and subsequently complement the acc1 lacking yeast strain are well known by an individual skilled in the art. In the art assays are known for measuring tolerance of a mutated plant ACCase gene versus a herbicide that is a member of the aryloxyphenoxypropanoate, cyclohexanedione, and/or phenylpyrazoline families of herbicides such as clethodim, sethoxydim, fluazifop, haloxyfop, quizalofop, and pinoxaden (Joachimiak M. et al Proc Natl Acad Sci U.S.A. 1997 Sep. 2; 94 (18): 9990-5 and WO/2013/074524).
A library of random mutations in the rice (Oryza sativa) plastidal ACCase gene was generated and screened for clethodim tolerant clones using a yeast complementation assay.

[2] = tested on: O. sativa ACCase; assay: Growth of Saccharomyces cerevisiae pseudodiploid acc1Δ strains carrying wild-type or mutant OsACCase plasmids, streaked onto plates with increasing concentrations of clethodim (Examples 5, 7, 10; Tables 8, 12); format: cell-based, Oryza sativa; set-up: key to growth, 0 mM clethodim / growth, 0.025 mM clethodim / growth, 0.1 mM clethodim / growth, 0.25 mM clethodim / growth, 0.5 mM clethodim / growth, 1 mM clethodim: ++ = Strong growth; + = Poor growth; − = No growth; key to relative growth phenotype, 0.5 mM clethodim / relative growth phenotype, 1 mM clethodim / relative growth phenotype, 2 mM clethodim / relative growth phenotype, highGal / relative growth phenotype, lowGal / relative growth phenotype, 0.05 mM clethodim / relative growth phenotype, 0.1 mM clethodim / relative growth phenotype, 0.25 mM clethodim: +++ high growth; ++ moderate growth; + low to negligible growth; (−) some cell debris, no growth; − no growth or cell debris; conditions: for relative growth phenotype, 0.05 mM clethodim: plate with 0.05 mM clethodim; for relative growth phenotype, 0.05 mM clethodim / relative growth phenotype, 0.1 mM clethodim / relative growth phenotype, 0.25 mM clethodim / relative growth phenotype, 0.5 mM clethodim / relative growth phenotype, 1 mM clethodim / relative growth phenotype, 2 mM clethodim / growth, 0 mM clethodim / growth, 0.025 mM clethodim / growth, 0.1 mM clethodim / growth, 0.25 mM clethodim / growth, 0.5 mM clethodim / growth, 1 mM clethodim: galactose 0.01%; for relative growth phenotype, 0.1 mM clethodim / growth, 0.1 mM clethodim: plate with 0.1 mM clethodim; for relative growth phenotype, 0.25 mM clethodim / growth, 0.25 mM clethodim: plate with 0.25 mM clethodim; for relative growth phenotype, 0.5 mM clethodim / growth, 0.5 mM clethodim: plate with 0.5 mM clethodim; for relative growth phenotype, 1 mM clethodim / growth, 1 mM clethodim: plate with 1 mM clethodim; for relative growth phenotype, 2 mM clethodim: plate with 2 mM clethodim; for relative growth phenotype, highGal / relative growth phenotype, lowGal: yeast acc1Δ strain with OsACCase plasmid, no clethodim; for relative growth phenotype, highGal: high galactose plate; for relative growth phenotype, lowGal: low galactose plate; for clethodim tolerance compared to the wild-type (wt) control strain: Example 5; for growth, 0 mM clethodim / growth, 0.025 mM clethodim / growth, 0.1 mM clethodim / growth, 0.25 mM clethodim / growth, 0.5 mM clethodim / growth, 1 mM clethodim: Table 12; for growth, 0 mM clethodim: plate with 0 mM clethodim; for growth, 0.025 mM clethodim: plate with 0.025 mM clethodim
Excerpt: Mutations at position N2097S and V2098A were combined to determine if point mutations at both positions gave increased resistance compared to either single point mutation. Each of these respective mutations (N2097S, V2098A and N2097S/V2098A) were generated by standard methods and introduced into a Saccharomyces cerevisiae pseudodiploid acc1Δ strain with a plasmid containing wild-type O. sativa ACCase gene. Once each of these mutations were introduced by recombination mediated mutagenesis, the OsACCase wild-type plasmid was removed, and mutation strains were confirmed by sequencing. The three strains, along with a series of controls including a WT strain (negative control), an I1781L mutant strain, and a D2078G mutant strain (positive control), were streaked onto plates with increasing concentrations of clethodim. […] These observations argue that N2097S is an enhancer of V2098A tolerance.
Edits at position S1784N and A1785G were combined to determine if point mutations at both of these two positions gave increased resistance compared to either single point mutation. Each of these respective mutations (S1784N, A1785G and S1784N/A1785G) were generated by standard methods and introduced into a Saccharomyces cerevisiae pseudodiploid acc1Δ strain with a plasmid containing wild-type O. sativa ACCase gene. Once each of these mutations were introduced by recombination mediated mutagenesis, the OsACCase wild-type plasmid was removed, and mutation strains were confirmed by sequencing. The three strains, along with a series of controls including a WT strain (negative control), an I1781L mutant strain, a D2078G mutant strain (positive control), and a V2075L mutant strain were streaked onto plates with increasing concentrations of clethodim.
Each of these respective mutations (D2078G, P2083T, D2078G/P2083T) were generated by standard methods and introduced into a Saccharomyces cerevisiae pseudodiploid acc14 strain with a plasmid containing the wild-type O. sativa ACCase gene. Once plasmids bearing each of these mutations, introduced using recombination-mediated mutagenesis, the OsACCase wild-type plasmid was removed, and strains bearing each mutant plasmid were confirmed by sequencing. The three strains, along with a series of controls including a wild-type strain (negative control), an I1781L mutant strain (medium control), and a pre-existing D2078G mutant strain (positive control) were streaked onto plates with increasing concentrations of clethodim.

[3] = plates with increasing clethodim, 0.01% galactose
[4] = Example 10, highest concentration tested 1 mM, 0.01% galactose

A1785G: mutated ACCase, numbering per SEQ ID NO: 2
clethodim tolerance [1]: no detectable clethodim tolerance | relative growth phenotype, 0.05 mM clethodim [2]: (−) | relative growth phenotype, 0.1 mM clethodim [2]: (−) | relative growth phenotype, 0.25 mM clethodim [2]: − | relative growth phenotype, 0.5 mM clethodim [2]: − | relative growth phenotype, 1 mM clethodim [2]: − | relative growth phenotype, 2 mM clethodim [2]: − | relative growth phenotype, highGal [2]: +++ | relative growth phenotype, lowGal [2]: +++

C2088M: mutated ACCase, numbering per SEQ ID NO: 2
clethodim tolerance [1]: produces measurable tolerance

D1681E: mutated ACCase, numbering per SEQ ID NO: 2
clethodim tolerance [1]: measurable clethodim tolerance

D1681G: mutated ACCase, numbering per SEQ ID NO: 2
clethodim tolerance [1]: measurable clethodim tolerance

D2078G/N2097S: double mutant ACCase
clethodim tolerance of combined mutations compared with single mutation(s) or parent mutant [1]: either less, or no more, tolerant than the single D2078G, V2075L and V2098A mutations

I1781L: mutated ACCase, numbering per SEQ ID NO: 2; moderate-resistance control
clethodim tolerance [1]: produces tolerance | clethodim tolerance compared to the wild-type (wt) control strain [2, 3]: did produce tolerance | clethodim concentrations on which the strain grew poorly [2, 4]: up to 0.25 mM | clethodim concentrations on which the strain grew well [2, 4]: up to 0.1 mM | growth, 0 mM clethodim [2]: ++ | growth, 0.025 mM clethodim [2]: ++ | growth, 0.1 mM clethodim [2]: ++ | growth, 0.25 mM clethodim [2]: + | growth, 0.5 mM clethodim [2]: − | growth, 1 mM clethodim [2]: − | relative growth phenotype, 0.05 mM clethodim [2]: +++ | relative growth phenotype, 0.1 mM clethodim [2]: +++ | relative growth phenotype, 0.25 mM clethodim [2]: ++ | relative growth phenotype, 0.5 mM clethodim [2]: (−) | relative growth phenotype, 1 mM clethodim [2]: (−) | relative growth phenotype, 2 mM clethodim [2]: (−) | growth on clethodim plates (in words) [2, 3]: consistent with moderate resistance | relative growth phenotype, highGal [2]: +++ | relative growth phenotype, lowGal [2]: +++

L1543F-D1681E: double mutant ACCase
clethodim tolerance of combined mutations compared with single mutation(s) or parent mutant [1]: increased clethodim tolerance compared to any one mutation alone

L1543F-D1681G: double mutant ACCase
clethodim tolerance of combined mutations compared with single mutation(s) or parent mutant [1]: increased clethodim tolerance compared to any one mutation alone

L1543F: mutated ACCase, numbering per SEQ ID NO: 2
clethodim tolerance [1]: measurable clethodim tolerance

L1543V-D1681E: double mutant ACCase
clethodim tolerance of combined mutations compared with single mutation(s) or parent mutant [1]: increased clethodim tolerance compared to any one mutation alone

L1543V-D1681G: double mutant ACCase
clethodim tolerance of combined mutations compared with single mutation(s) or parent mutant [1]: increased clethodim tolerance compared to any one mutation alone

L1543V: mutated ACCase, numbering per SEQ ID NO: 2
clethodim tolerance [1]: measurable clethodim tolerance

L1818H: mutated ACCase, numbering per SEQ ID NO: 2
clethodim tolerance [1]: measurable clethodim tolerance

L1818I: mutated ACCase, numbering per SEQ ID NO: 2
clethodim tolerance [1]: measurable clethodim tolerance

M1974T-D2078G: double mutant ACCase
clethodim tolerance of combined mutations compared with single mutation(s) or parent mutant [1]: tolerance that is similar to the corresponding original triple mutants

M1974T: mutated ACCase, numbering per SEQ ID NO: 2
clethodim tolerance [1]: neither R1672I nor M1974T alone provide measurable tolerance | effect on clethodim tolerance of the single D2078G mutation [1]: increase tolerance of the single D2078G mutation

M1975T: mutated ACCase, numbering per SEQ ID NO: 2
effect on clethodim tolerance of the single D2078G mutation [1]: neither M1975T nor M2257I provide detectable clethodim tolerance increase to the single D2078G mutation

N2097S/V2098A: double mutant ACCase
tolerance/resistance of double mutant compared with single mutation(s) [2, 3]: notably increased compared to the V2098A change alone

N2097S: mutated ACCase, numbering per SEQ ID NO: 2
clethodim tolerance [1]: neither the N2097S nor the N2097D single mutations provide detectable clethodim tolerance | effect on clethodim tolerance when combined with D2078G, V2075L or V2098A ([1]; combined with either D2078G, V2075L or V2098A): further increases clethodim tolerance | clethodim tolerance compared to the wild-type (wt) control strain [2, 3]: does not produce detectable clethodim tolerance

P2083T: mutated ACCase, numbering per SEQ ID NO: 2
growth, 0 mM clethodim [2]: ++ | growth, 0.025 mM clethodim [2]: − | growth, 0.1 mM clethodim [2]: − | growth, 0.25 mM clethodim [2]: − | growth, 0.5 mM clethodim [2]: − | growth, 1 mM clethodim [2]: − | growth on clethodim plates (in words) [2, 3]: unable to grow on all concentrations of clethodim tested

R1672I-D2078G: double mutant ACCase
clethodim tolerance of combined mutations compared with single mutation(s) or parent mutant [1]: tolerance that is similar to the corresponding original triple mutants

R1672I/M1975T/D2078G: triple mutant ACCase clone
clethodim tolerance of combined mutations compared with single mutation(s) or parent mutant [1]: increased clethodim tolerance compared to the single D2078G mutation

R1672I: mutated ACCase, numbering per SEQ ID NO: 2
clethodim tolerance [1]: neither R1672I nor M1974T alone provide measurable tolerance | effect on clethodim tolerance of the single D2078G mutation [1]: increase tolerance of the single D2078G mutation

S1784G: mutated ACCase, numbering per SEQ ID NO: 2
clethodim tolerance [1]: measurable clethodim tolerance

S1784N plus L1818H: double mutant ACCase
clethodim tolerance of combined mutations compared with single mutation(s) or parent mutant [1]: improves tolerance in comparison to either single mutation

S1784N/A1785G: double mutant ACCase
clethodim concentrations on which the strain grew ([2]; Example 7, plates with increasing clethodim, 0.01% galactose): up to 1 mM | relative growth phenotype, 0.05 mM clethodim [2]: +++ | relative growth phenotype, 0.1 mM clethodim [2]: +++ | relative growth phenotype, 0.25 mM clethodim [2]: +++ | relative growth phenotype, 0.5 mM clethodim [2]: +++ | relative growth phenotype, 1 mM clethodim [2]: + | relative growth phenotype, 2 mM clethodim [2]: (−) | tolerance/resistance of double mutant compared with single mutation(s) [2, 3]: superior in terms of resistance to either individual mutation | relative growth phenotype, highGal [2]: +++ | relative growth phenotype, lowGal [2]: +++

V2075L/N2097D: double mutant ACCase
clethodim tolerance of combined mutations compared with single mutation(s) or parent mutant [1]: either less, or no more, tolerant than the single D2078G, V2075L and V2098A mutations

V2098A/N2097D: double mutant ACCase
clethodim tolerance of combined mutations compared with single mutation(s) or parent mutant [1]: either less, or no more, tolerant than the single D2078G, V2075L and V2098A mutations
